# In patent US10350302B2, “Thymidine kinase diagnostic assay for gene therapy applications” (GenVivo, Inc., priority 2013, dated 2019):
# Key:
# [1] = [18F]FHBG whole body biodistribution by PET (FIG. 2); assay type: in vivo, human
# Description: FIG. 2 is whole body coronal images of [^18F]FHBG biodistribution in a healthy human subject at four distinct time periods after 4.53 mCi i.v. injection of the [^18F]FHBG.
# In some embodiments, the clearance pattern in a subject determines the length of time delay for measuring background and determining, for example, [^18F]FHBG imaging activity. […] Accordingly, depending upon the organ and subject individual, some time may be required for background levels to decrease in order to measure HSV-TK gene expression. […] In these organ systems, a sufficient threshold for gene therapy suitability may be, for example, at least above 1.0 SUV, at least above 1.5 SUV, at least above 2.0 SUV, at least above 2.5 SUV, at least above 3.0 SUV, at least above 3.5 SUV or at least above 4.0 SUV.
# In contrast, some delay may be needed in order to image signals above background levels in, for example, the liver and kidneys. See Yaghoubi et al. Nat. Protocols at vol. 1, p. 3073. Because of the background signals in these organ systems, a sufficient threshold for determination of suitability for gene therapy treatment may be, for example, at least 10% above background, at least 15% above background, at least 20% above background, at least 25% above background, at least 30% above background, at least 35% above background, at least 40% above background, at least 45% above background, at least 50% above background, at least 55% above background, at least 60% above background, at least 65% above background, at least 70% above background, at least 75% above background, at least 80% above background, at least 85% above background, at least 90% above background, at least 95% above background or at least 100% or more above background when measured after a predetermined amount of time. […] Accordingly, [^18F]FHBG signal measurements in the liver should not be taken until after [^18F]FHBG signal levels have decreased to background, approximately 1 to 1½ hours, depending upon clearance rate in each individual subject.
# HSV-TK enzyme = details: cited from earlier work
# mammalian TK enzymes = details: cited from earlier work
# [2] = system: cells containing HSV-TK-m2; details: published observations; cited from earlier work
# cancer cells = experiment: GCV mediated cancer cell kill assay after retroviral transduction; assay type: cell-based; details: following retroviral transduction delivery
# Description: […]
# [3] = healthy human subject, 45.3 minutes to 80.3 minutes
# [4] = healthy human subject, 83.3 minutes to 155.6 minutes
molecule,measurement,setting,value
"Nc1nc2c(ncn2CCC(CO)C[18F])c(=O)[nH]1 (stereo not drawn) [[^18F]FHBG, 9-[4-[^18F]Fluoro-3-(hydroxymethyl)butyl]guanine]",background [18F]FHBG signal in the heart and lungs,"[1]; healthy human subject, 4.53 mCi i.v., after administration",virtually no background
same,"[18F]FHBG levels in the liver, kidneys and bladder","[1]; healthy human subject, 4.53 mCi i.v., between 7.6 and 42.6 minutes after administration",high
same,[18F]FHBG levels in the liver and kidneys,[1]; [3],decreased significantly
same,[18F]FHBG signal in the bladder,[1]; [3],persistent high signal
same,[18F]FHBG levels in the liver and kidneys,[1]; [4],decreased even further
same,[18F]FHBG signal in the bladder,[1]; [4],maintenance of high signal levels
same,[18F]FHBG background in most tissues outside the lower abdomen,[1]; humans,rapidly decreases
same,affinity as substrate for HSV-TK enzyme,HSV-TK enzyme,high affinity substrate
same,affinity for mammalian TK enzymes,mammalian TK enzymes,relative low affinity
Nc1nc(O)c2ncn(COC(CO)CO)c2n1 [ganciclovir],duration of ganciclovir sufficient to kill the majority of cells containing HSV-TK-m2,[2],5 days
HSV-TK gene A168H and mutated at amino acids 159-161 from LIF to IFL: HSV-TK gene A168H also mutated at amino acids 159-161 from LIF to IFL (nucleic acid) DNA: GTCAGCGGCCGCACCGGTACGCGTCCACCATGGCCAGCTACCCCGGCCACCAGCACGCCAGCGCCTTCGACCAGGCCGCCCGCAGCCGCGGCCACAGCAACGGCAGCACCGCACTGCGGCCACGGCGCCAGCAGGAGGCCACCGAGGTGCGCCCCGAGCAGAAGATGCCCACCCTGCTGCGCGTGTACATCGACGGACCACACGGCATGGGCAAGACCACCACCACCCAGCTGCTGGTGGCCCTGGGCAGCCGCGACGACATCGTGTACGTGCCCGAGCCCATGACCTACTGGCGCGTGCTGGGCGCCAGCGAGACCATCGCCAACATCTACACCACCCAGCACCGCCTGGACCAAGGCGAGATCAGCGCCGGCGACGCCGCCGTGGTGATGACCAGCGCCCAGATTACAATGGGCATGCCCTACGCCGTGACCGACGCCGTGCTGGCACCACACATCGGCGGCGAGGCCGGCAGCAGCCACGCACCACCACCAGCACTGACCATCTTCCTGGACCGGCACCCAATCGCACACCTGCTGTGCTACCCGGCAGCACGCTACCTGATGGGCTCCATGACACCACAAGCCGTGCTGGCCTTCGTGGCCCTGATCCCACCAACACTGCCCGGCACCAACATCGTGCTGGGCGCCCTGCCCGAGGACCGCCACATCGACCGCCTGGCCAAGCGCCAGCGCCCCGGCGAGCGCCTGGACCTGGCCATGCTGGCCGCCATCCGCCGCGTGTACGGCCTGCTGGCCAACACCGTGCGCTACCTGCAGTGCGGCGGCAGCTGGCGCGAGGACTGGGGCCAGCTGAGCGGCACCGCCGTGCCACCACAGGGCGCCGAGCCACAGAGCAACGCCGGACCACGACCACACATCGGCGACACCCTGTTCACCCTGTTCCGGGCACCAGAGCTGCTGGCACCAAACGGCGACCTGTACAACGTGTTCGCCTGGGCCCTGGACGTGCTGGCCAAGCGCCTGCGCTCCATGCACGTGTTCATCCTGGACTACGACCAGTCACCGGCCGGCTGCCGCGACGCCCTGCTGCAGCTGACCAGCGGCATGGTGCAGACCCACGTGACAACACCCGGCAGCATCCCAACAATCTGCGACCTGGCCCGCACCTTCGCCCGCGAGATGGGCGAGGCCAACTAATAGGGATCCCTCGAGAAGCTTGTCA,GCV mediated cancer kill activity,cancer cells; ganciclovir (GCV) pro-drug,exhibited GCV mediated cancer cell kill activity
"SEQ ID NO: 18: optimized HSV-TK polynucleotide: A168H, nuclear export sequence, double mutated NLS, codon optimized, splice corrected (nucleic acid) DNA: GTCAGCGGCCGCACCGGTACGCGTCCACCATGGCCCTGCAGAAAAAGCTGGAAGAGCTGGAACTGGATGGCAGCTACCCCGGCCACCAGCACGCCAGCGCCTTCGACCAGGCCGCCCGCAGCCGCGGCCACAGCAACGGCAGCACCGCACTGCGGCCAGGATCTCAGCAGGAGGCCACCGAGGTGCGCCCCGAGCAGAAGATGCCCACCCTGCTGCGCGTGTACATCGACGGACCACACGGCATGGGCAAGACCACCACCACCCAGCTGCTGGTGGCCCTGGGCAGCCGCGACGACATCGTGTACGTGCCCGAGCCCATGACCTACTGGCGCGTGCTGGGCGCCAGCGAGACCATCGCCAACATCTACACCACCCAGCACCGCCTGGACCAAGGCGAGATCAGCGCCGGCGACGCCGCCGTGGTGATGACCAGCGCCCAGATTACAATGGGCATGCCCTACGCCGTGACCGACGCCGTGCTGGCACCACACATCGGCGGCGAGGCCGGCAGCAGCCACGCACCACCACCAGCACTGACCCTGATCTTCGACCGGCACCCAATCGCACACCTGCTGTGCTACCCGGCAGCACGCTACCTGATGGGCTCCATGACACCACAAGCCGTGCTGGCCTTCGTGGCCCTGATCCCACCAACACTGCCCGGCACCAACATCGTGCTGGGCGCCCTGCCCGAGGACCGCCACATCGACCGCCTGGCCAAGCGCCAGCGCCCCGGCGAGCGCCTGGACCTGGCCATGCTGGCCGCCATCCGCCGCGTGTACGGCCTGCTGGCCAACACCGTGCGCTACCTGCAGTGCGGCGGCAGCTGGCGCGAGGACTGGGGCCAGCTGAGCGGCACCGCCGTGCCACCACAGGGCGCCGAGCCACAGAGCAACGCCGGACCACGACCACACATCGGCGACACCCTGTTCACCCTGTTCCGGGCACCAGAGCTGCTGGCACCAAACGGCGACCTGTACAACGTGTTCGCCTGGGCCCTGGACGTGCTGGCCAAGCGCCTGCGCTCCATGCACGTGTTCATCCTGGACTACGACCAGTCACCGGCCGGCTGCCGCGACGCCCTGCTGCAGCTGACCAGCGGCATGGTGCAGACCCACGTGACAACACCCGGCAGCATCCCAACAATCTGCGACCTGGCCCGCACCTTCGCCCGCGAGATGGGCGAGGCCAACTAATAGGGATCCCTCGAGAAGCTTGTCA",pro-drug GCV enzyme activity and selectivity for ability to kill cancer cells,cancer cells,exhibited pro-drug GCV enzyme activity and selectivity
